Inhibition and IC50 data for 22 compounds are collected here from ChEMBL document CHEMBL5375999, “Discovery of a Dual Tubulin and Neuropilin-1 (NRP1) Inhibitor with Potent In Vivo Anti-Tumor Activity via Pharmacophore-based Docking Screening, Structure Optimization, and Biological Evaluation” (J Med Chem, 2023).

For data set [1], the target named is Neuropilin-1 (Homo sapiens) (UniProt O14786). Put plainly: Inhibition of [125I]-VEGF-A165 binding to NRP1 (unknown origin) transfected in HUVECs at 12 uM incubated for 2 hrs by plate reader analysis relative to control. As to conditions: HUVEC. Format: cell-based.
Target sequence in this assay (O14786 whole entry): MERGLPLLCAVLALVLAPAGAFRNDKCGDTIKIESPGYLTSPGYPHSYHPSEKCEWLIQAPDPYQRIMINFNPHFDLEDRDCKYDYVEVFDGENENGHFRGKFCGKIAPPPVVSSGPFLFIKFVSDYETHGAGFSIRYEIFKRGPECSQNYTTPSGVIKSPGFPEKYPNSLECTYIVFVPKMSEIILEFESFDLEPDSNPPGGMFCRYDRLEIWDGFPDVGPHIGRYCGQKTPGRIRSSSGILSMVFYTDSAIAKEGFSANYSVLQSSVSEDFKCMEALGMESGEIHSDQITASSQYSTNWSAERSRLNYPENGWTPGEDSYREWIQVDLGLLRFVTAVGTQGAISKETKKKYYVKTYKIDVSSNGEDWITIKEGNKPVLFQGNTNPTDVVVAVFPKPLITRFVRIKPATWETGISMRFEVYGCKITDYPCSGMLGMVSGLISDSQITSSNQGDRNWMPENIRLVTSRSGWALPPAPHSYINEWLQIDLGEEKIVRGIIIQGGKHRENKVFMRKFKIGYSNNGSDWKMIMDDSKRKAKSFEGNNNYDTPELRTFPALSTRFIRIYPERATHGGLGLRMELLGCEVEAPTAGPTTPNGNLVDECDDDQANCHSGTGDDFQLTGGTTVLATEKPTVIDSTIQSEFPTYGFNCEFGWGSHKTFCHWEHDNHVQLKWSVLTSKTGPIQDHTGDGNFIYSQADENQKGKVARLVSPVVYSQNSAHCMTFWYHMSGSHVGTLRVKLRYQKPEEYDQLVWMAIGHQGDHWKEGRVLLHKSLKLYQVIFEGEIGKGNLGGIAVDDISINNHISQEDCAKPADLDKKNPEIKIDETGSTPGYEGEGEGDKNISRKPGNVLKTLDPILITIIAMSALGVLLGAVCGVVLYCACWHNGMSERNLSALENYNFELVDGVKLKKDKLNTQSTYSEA
The next data set deals with Tubulin. Description: Inhibition of tubulin polymerization (unknown origin) by spectrophotometric analysis. Format: protein-complex assay, Homo sapiens.
The next data set has as its target Tubulin (Homo sapiens) (UniProt P68371+Q9H4B7+P0DPH7+P68366+Q13509+Q71U36+P04350+Q3ZCM7+P07437+P68363+Q9BQE3+Q6PEY2+Q13885+Q9BVA1+Q9BUF5). Put plainly: Inhibition of tubulin polymerization (unknown origin) at 12 uM by spectrophotometric analysis relative to control. Format: protein-complex assay.
The target in data set [2] is Neuropilin-1 (Homo sapiens) (UniProt O14786). Description: Inhibition of [125I]-VEGF-A165 binding to NRP1 (unknown origin) transfected in HUVECs incubated for 2 hrs by plate reader analysis. As to conditions: HUVEC.
Target sequence in this assay (O14786 whole entry, looked up): as the sequence (O14786 whole entry) above
Data set [3] is described as follows: Cytotoxicity against human PrEC cells assessed as inhibition of cell viability incubated for 48 hrs by MTT assay. Format: toxicity, cell-based. A general note: Tetrazolium assays rely on reduction of a dye to a coloured formazan, in cell work by metabolically active cells.
In the next data set the test system is PC-3. Description: Cytotoxicity against human PC-3 cells assessed as inhibition of cell viability incubated for 48 hrs by MTT assay. Format: functional, cell-based. As to conditions: PC-3, 48 h.

Active and inactive are the calls of the source. The calls are words filed in the database; no cut-off is given here.

Take `N=C(N)NCC(C[C@H](NCc1ccccc1)C(=O)O)[N+](=O)[O-]` (stereo partly drawn): in data set [1], the inhibition (commonly the drop in the measured response relative to a control, in per cent) stood at 60%.

Turning to `COc1ccc(/C=C\c2cc(OC)c(OC)c(OC)c2)cc1NC(=O)CCCC(=O)N[C@@H](CCCNC(=N)N)C(=O)O`, inhibition against Tubulin was half-maximal at 5.57 µM (IC50).

The compound `Cc1ccc(S(=O)(=O)N[C@@H](CCCNC(=N)N)C(=O)O)cc1` came in with an inhibition in data set [1] of 82%.

In data set [1], `N=C(N)NCCC[C@H](NC(=O)c1sccc1NS(=O)(=O)c1cccc2nsnc12)C(=O)O` returned an inhibition of 87%.

`COc1cc2c(cc1OC)C(c1cc(OC)c(OC)c(OC)c1)OCC2` (stereo not drawn) gave an inhibition at Tubulin (Homo sapiens) of 69%.

Turning to `COC(=O)[C@H](CCCNC(=N)N)NC(=O)CCCCCCC(=O)Nc1cc(/C=C\c2cc(OC)c(OC)c(OC)c2)ccc1OC`, the inhibition result in data set [2] is “inactive”.

`COc1cc(O)c(/C=C/C(=O)c2cc(OC)c(OC)c(OC)c2)c(OC)c1`: the inhibition against Tubulin (Homo sapiens) is 71%.

`COC(=O)[C@H](CCCNC(=N)N)NC(=O)CCCC(=O)Nc1cc(/C=C\c2cc(OC)c(OC)c(OC)c2)ccc1OC`: at Tubulin, the IC50 (commonly the concentration that inhibits the measured activity by half) stood at 7.96 µM. For the same compound, in data set [2], the inhibition result is “inactive”.

Regarding `COc1cc(-c2cc(C(F)(F)F)n3ncc(C(=O)NCC(C)C)c3n2)cc(OC)c1OC`, the inhibition on Tubulin (Homo sapiens) is 21%.

Consider `COc1ccc(/C=C\c2cc(OC)c(OC)c(OC)c2)cc1NC(=O)CCCCC(=O)N[C@@H](CCCNC(=N)N)C(=O)O`, for which the midpoint of inhibition against Tubulin, the IC50, lay at 7.15 µM.

In turn, `COc1ccc(/C=C\c2cc(OC)c(OC)c(OC)c2)cc1NC(=O)/C=C/C(=O)N[C@@H](CCCNC(=N)N)C(=O)O` showed a half-inhibitory concentration (IC50) at Tubulin of 1.53 µM.

On to `COc1cc(-c2cc(-n3c(S)nc4ccccc4c3=O)[nH]n2)cc(OC)c1OC`, for which the inhibition at Tubulin (Homo sapiens) is 28%.

Compound `COc1cc([C@@H]2CC(=O)c3cnc(N4CCN(CCO)CC4)nc3C2)cc(OC)c1OC` gave an inhibition at Tubulin (Homo sapiens) of 48%.

Regarding `COc1ccc2c(c1)OC(c1cc(OC)c(OC)c(OC)c1)CC2=O` (stereo not drawn), on Tubulin (Homo sapiens), the inhibition is 52%.

The compound `COC(=O)[C@H](CCCNC(=N)N)NC(=O)CCCCC(=O)Nc1cc(/C=C\c2cc(OC)c(OC)c(OC)c2)ccc1OC` registered an IC50 on Tubulin of 9.34 µM. Moreover, the inhibition entry in data set [2] was “inactive”.

`COc1ccc(/C=C\c2cc(OC)c(OC)c(OC)c2)cc1O` [COMBRETASTATIN A4]: the IC50 at 48 h in data set [3] was found to be 0.08 µM. Also, in the data set on PC-3, the IC50 was determined as 0.06 µM. Further, the inhibition result in data set [2] is “inactive”.

At Tubulin (Homo sapiens), `COc1cc(C2OC2C(=O)c2ccccc2)cc(OC)c1OC` (stereo not drawn) came in with an inhibition of 15%.

In the case of `COC(=O)[C@H](CCCNC(=N)N)NC(=O)/C=C/C(=O)Nc1cc(/C=C\c2cc(OC)c(OC)c(OC)c2)ccc1OC`, it took 4.14 µM to reach half-maximal inhibition against Tubulin (IC50). Further, the inhibition entry in data set [2] is “inactive”.

The compound `N=C(N)NCCC[C@H](NC(=O)c1ccccc1)C(=O)O` registered an inhibition in data set [1] of 79%.

As for `COc1cc(C(=O)/C=C/c2c[nH]c3ccc(Br)cc23)cc(OC)c1OC`, the inhibition against Tubulin (Homo sapiens) was 63%.

Regarding `COc1cc(C(=O)/C=C/Nc2cccc(C)c2)cc(OC)c1OC`, the inhibition against Tubulin (Homo sapiens) was determined as 45%.

`COc1cc(C(O)c2cc3c(cc2CO)OCO3)cc(OC)c1OC` (stereo not drawn): the inhibition in data set [1] was 47%; on Tubulin (Homo sapiens), 64%.
